Results reported in patent US8133913B2, “Substituted indeno [1,2-b]indole derivatives as novel inhibitors of protein kinase CK2 and their use as tumor therapeutic agents, cytostatics and diagnostic aids” (Heinrich-Heine Universitat Dusseldof, priority 2006, dated 2012).
Like-named read-outs stand apart in the source and are kept apart here.

Columns and labels:
Test in all cases: Radiometric protein kinase assay (33PanQinase Activity Assay)
Type in all cases: biochemical
ARK5 = molecular target: T1, ARK5 (Homo sapiens, UniProt O60285)
T1 construct: made in house; host or cells: Sf9 insect cells, baculovirus
T1 sequence (O60285 1-661): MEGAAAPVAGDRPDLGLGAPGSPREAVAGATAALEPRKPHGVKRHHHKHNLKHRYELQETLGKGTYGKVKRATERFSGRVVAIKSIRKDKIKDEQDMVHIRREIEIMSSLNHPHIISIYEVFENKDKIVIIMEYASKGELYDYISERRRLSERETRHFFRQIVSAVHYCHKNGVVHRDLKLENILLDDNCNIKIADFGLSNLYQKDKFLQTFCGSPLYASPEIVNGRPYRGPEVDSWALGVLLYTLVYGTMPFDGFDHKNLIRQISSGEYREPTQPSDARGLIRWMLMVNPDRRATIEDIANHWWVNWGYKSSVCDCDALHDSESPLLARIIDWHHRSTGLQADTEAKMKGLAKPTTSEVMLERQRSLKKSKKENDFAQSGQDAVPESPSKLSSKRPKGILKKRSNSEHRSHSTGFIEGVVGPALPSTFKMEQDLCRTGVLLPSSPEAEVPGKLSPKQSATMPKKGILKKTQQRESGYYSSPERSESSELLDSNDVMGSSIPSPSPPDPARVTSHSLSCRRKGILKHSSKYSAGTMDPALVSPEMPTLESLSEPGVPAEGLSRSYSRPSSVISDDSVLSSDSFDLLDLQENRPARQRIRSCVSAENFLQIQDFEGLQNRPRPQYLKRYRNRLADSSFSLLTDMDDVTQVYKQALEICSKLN
Description: (§1) AKTI1, ARK5, Aurora-A, Aurora-B, B-RAF-VE, CDK2/CycA, CDK4/CycD1, CK2-alpha1 (catalytic subunit of CK2), EGF-R, EPHB4, ERBB2, FAK, IGF1-R, SRC, VEGF-R2, VEGF-R3, FLT3, INS-R, MET, PDGFR-beta, PLK1, SAK, TIE2, COT.
(§2) All the protein kinases were expressed in Sf9 insect cells as human recombinant GST fusion proteins or His-tagged proteins by the baculovirus expression system. Kinases were purified by affinity chromatography either by GSH-agarose (Sigma) or Ni—NTH-agarose (Qiagen). The purity of the kinases was tested by SDS-PAGE/silver staining, and the identity of the kinases was verified by Western blot analysis with specific antibodies or mass spectroscopy.
(§3) A radiometric protein kinase assay (33PanQinase® Activity Assay) was used to measure the kinase activity for the 24 protein kinases. The kinase assays were carried out in 96-well FlashPlates™ from Perkin Elmer/NEN (Boston, Mass., USA) in a reaction volume of 50 μl. The reaction mixture was pipetted in 4 steps in the following sequence: • 20 μl of assay buffer • 5 μl of ATP solution (in H2O) • 5 μl of test compound (in 10% DMSO) • 10 μl of substrate/10 μl of enzyme solution (premixed)
(§4) The assays for all the enzymes contained 60 mM HEPES-NaOH, pH 7.5, 3 mM MgCl2, 3 mM MnCl2, 3 μM Na orthovanadate, 1.2 mM DTT, 50 μg/ml PEG20000, 1 μM [γ-^33P]-ATP (about 5×10^5 cpm per well).
(§5) The reaction mixture was incubated at 30° C. for 80 minutes. The reaction was stopped with 50 μl of 2% (v/v) H3PO4. The plates were aspirated and washed twice with 200 μl of 0.9% (w/v) NaCl. The incorporation of ^33Pi was determined using a microtiter plates scintillation counter (Microbeta Trilux, Wallac).

EPHB4 = molecular target: T2, EPHB4 (Homo sapiens, UniProt P54760)
T2 construct: made in house; host or cells: Sf9 insect cells, baculovirus
T2 sequence (P54760 16-987): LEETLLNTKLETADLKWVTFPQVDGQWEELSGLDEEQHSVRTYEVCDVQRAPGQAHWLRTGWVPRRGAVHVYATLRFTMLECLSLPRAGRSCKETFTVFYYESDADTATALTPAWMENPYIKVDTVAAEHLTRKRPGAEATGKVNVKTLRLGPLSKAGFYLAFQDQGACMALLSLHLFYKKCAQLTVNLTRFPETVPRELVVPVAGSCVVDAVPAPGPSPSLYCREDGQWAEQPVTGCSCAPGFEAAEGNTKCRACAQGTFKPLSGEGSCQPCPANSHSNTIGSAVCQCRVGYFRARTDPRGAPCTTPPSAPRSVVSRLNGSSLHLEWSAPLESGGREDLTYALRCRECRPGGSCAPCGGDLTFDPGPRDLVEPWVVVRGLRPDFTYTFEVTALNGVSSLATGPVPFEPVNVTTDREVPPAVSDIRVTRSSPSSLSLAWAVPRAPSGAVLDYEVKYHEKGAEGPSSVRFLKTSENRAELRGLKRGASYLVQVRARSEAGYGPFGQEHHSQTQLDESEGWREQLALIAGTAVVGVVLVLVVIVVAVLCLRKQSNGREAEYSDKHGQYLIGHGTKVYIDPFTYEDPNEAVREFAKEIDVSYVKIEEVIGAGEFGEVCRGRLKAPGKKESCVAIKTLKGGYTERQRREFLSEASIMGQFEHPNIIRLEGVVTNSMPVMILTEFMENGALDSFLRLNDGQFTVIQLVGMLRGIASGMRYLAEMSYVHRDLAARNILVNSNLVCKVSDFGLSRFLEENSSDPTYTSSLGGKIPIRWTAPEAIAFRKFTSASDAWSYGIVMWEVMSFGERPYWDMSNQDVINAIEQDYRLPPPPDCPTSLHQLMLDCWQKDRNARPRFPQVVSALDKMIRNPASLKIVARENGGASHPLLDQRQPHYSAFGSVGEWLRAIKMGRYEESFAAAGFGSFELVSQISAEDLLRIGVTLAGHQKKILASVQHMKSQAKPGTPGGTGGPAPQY
Description: as §1, §2, §3, §4, §5

FAK = molecular target: T3, FAK (Homo sapiens, UniProt Q05397)
T3 construct: made in house; host or cells: Sf9 insect cells, baculovirus
Description: as §1, §2, §3, §4, §5

INS-R = molecular target: T4, INS-R (Homo sapiens, UniProt P06213)
T4 construct: made in house; host or cells: Sf9 insect cells, baculovirus
Description: as §1, §2, §3, §4, §5

SRC = molecular target: T5, SRC (Homo sapiens, UniProt P12931)
T5 construct: made in house; host or cells: Sf9 insect cells, baculovirus
Description: as §1, §2, §3, §4, §5

TIE2 = molecular target: T6, TIE2 (Homo sapiens, UniProt Q02763)
T6 construct: made in house; host or cells: Sf9 insect cells, baculovirus
Description: as §1, §2, §3, §4, §5

VEGF-R2 = molecular target: T7, VEGF-R2 (Homo sapiens, UniProt P35968)
T7 construct: made in house; host or cells: Sf9 insect cells, baculovirus
Description: as §1, §2, §3, §4, §5

PDGFR-beta = molecular target: T8, PDGFR-beta (Homo sapiens, UniProt P09619); conditions: 1 μM ATP
T8 construct: made in house; host or cells: Sf9 insect cells, baculovirus

[1] = 1 μM ATP, read-out: IC50 values [μM] ARK5
[2] = 1 μM ATP, read-out: IC50 values [μM] EPHB4
[3] = 1 μM ATP, read-out: IC50 values [μM] FAK
[4] = 1 μM ATP, read-out: IC50 values [μM] INS-R
[5] = 1 μM ATP, read-out: IC50 values [μM] SRC
[6] = 1 μM ATP, read-out: IC50 values [μM] TIE2
[7] = 1 μM ATP, read-out: IC50 values [μM] VEGF-R2

T5 sequence (P12931 whole entry): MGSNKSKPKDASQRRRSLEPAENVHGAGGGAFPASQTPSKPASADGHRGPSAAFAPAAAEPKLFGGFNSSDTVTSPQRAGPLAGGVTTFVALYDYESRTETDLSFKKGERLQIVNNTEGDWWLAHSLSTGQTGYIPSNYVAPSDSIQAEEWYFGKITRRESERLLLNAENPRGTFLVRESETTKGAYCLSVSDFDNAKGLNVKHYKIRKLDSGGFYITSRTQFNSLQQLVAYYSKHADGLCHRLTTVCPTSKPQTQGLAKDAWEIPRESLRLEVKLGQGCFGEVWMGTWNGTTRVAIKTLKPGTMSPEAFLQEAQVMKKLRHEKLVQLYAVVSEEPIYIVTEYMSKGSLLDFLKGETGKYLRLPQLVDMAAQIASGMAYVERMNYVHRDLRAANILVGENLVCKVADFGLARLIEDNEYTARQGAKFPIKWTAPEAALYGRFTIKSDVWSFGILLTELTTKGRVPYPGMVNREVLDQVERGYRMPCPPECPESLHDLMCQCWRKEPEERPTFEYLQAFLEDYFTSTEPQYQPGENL
T7 sequence (P35968 20-1356): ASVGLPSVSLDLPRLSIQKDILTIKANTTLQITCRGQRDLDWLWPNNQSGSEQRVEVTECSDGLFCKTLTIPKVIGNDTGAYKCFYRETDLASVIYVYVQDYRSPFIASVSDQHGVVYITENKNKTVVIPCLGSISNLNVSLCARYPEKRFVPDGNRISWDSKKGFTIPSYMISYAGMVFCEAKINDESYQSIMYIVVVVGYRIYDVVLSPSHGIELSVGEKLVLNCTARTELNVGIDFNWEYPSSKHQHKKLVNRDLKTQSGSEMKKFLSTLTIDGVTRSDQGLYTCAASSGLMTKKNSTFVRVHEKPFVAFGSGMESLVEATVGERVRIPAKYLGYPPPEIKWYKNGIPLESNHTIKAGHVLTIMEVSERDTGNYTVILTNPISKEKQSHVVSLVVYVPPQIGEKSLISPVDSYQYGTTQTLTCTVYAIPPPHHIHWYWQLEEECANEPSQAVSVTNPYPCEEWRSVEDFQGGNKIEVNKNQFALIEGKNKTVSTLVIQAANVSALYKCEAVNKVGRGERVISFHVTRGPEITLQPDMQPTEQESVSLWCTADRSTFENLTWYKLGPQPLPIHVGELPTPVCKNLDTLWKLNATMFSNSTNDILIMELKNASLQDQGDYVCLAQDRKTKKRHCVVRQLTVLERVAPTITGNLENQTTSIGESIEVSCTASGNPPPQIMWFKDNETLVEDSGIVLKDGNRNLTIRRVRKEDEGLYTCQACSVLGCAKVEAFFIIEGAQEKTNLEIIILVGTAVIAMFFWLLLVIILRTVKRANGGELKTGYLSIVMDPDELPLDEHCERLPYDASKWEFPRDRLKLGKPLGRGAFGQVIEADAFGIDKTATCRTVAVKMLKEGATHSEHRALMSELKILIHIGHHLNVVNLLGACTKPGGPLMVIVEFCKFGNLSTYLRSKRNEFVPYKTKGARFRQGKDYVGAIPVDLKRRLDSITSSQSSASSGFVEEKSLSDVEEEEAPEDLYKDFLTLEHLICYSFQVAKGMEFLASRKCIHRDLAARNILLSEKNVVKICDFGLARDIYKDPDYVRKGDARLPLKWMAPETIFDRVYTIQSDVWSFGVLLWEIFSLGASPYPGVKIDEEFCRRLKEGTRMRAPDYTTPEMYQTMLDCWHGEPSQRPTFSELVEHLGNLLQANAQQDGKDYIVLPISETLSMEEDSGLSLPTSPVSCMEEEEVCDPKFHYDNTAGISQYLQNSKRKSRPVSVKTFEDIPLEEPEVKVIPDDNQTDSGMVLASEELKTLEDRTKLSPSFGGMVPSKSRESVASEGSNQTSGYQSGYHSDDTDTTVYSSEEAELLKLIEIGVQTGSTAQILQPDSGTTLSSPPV
T3 sequence (Q05397 whole entry): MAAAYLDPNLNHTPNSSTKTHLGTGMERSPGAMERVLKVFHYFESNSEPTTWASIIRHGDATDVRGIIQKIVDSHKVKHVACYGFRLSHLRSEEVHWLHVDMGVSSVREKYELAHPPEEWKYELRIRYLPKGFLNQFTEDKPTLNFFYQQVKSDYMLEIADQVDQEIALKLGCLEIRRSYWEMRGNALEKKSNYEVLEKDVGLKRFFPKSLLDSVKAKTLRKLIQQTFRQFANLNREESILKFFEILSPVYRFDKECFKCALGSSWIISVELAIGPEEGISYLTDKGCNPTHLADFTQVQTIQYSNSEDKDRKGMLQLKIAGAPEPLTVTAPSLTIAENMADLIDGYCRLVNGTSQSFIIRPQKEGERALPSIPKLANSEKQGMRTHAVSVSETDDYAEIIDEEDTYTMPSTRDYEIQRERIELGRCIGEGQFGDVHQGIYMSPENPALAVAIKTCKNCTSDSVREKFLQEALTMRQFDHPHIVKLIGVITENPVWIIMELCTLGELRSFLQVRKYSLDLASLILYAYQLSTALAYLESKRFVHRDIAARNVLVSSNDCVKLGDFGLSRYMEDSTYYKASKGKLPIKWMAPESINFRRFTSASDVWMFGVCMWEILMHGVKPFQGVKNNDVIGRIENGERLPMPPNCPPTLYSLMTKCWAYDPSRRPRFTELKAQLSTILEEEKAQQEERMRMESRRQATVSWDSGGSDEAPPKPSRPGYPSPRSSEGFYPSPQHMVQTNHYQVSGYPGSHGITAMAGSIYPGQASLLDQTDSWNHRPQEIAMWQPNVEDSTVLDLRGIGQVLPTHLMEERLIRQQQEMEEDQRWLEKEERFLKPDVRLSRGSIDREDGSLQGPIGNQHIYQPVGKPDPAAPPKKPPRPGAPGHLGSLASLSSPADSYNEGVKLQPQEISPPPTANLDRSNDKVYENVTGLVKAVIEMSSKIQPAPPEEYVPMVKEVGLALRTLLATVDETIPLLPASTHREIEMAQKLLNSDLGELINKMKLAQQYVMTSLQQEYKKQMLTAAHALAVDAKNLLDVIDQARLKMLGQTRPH
T6 sequence (Q02763 23-1124): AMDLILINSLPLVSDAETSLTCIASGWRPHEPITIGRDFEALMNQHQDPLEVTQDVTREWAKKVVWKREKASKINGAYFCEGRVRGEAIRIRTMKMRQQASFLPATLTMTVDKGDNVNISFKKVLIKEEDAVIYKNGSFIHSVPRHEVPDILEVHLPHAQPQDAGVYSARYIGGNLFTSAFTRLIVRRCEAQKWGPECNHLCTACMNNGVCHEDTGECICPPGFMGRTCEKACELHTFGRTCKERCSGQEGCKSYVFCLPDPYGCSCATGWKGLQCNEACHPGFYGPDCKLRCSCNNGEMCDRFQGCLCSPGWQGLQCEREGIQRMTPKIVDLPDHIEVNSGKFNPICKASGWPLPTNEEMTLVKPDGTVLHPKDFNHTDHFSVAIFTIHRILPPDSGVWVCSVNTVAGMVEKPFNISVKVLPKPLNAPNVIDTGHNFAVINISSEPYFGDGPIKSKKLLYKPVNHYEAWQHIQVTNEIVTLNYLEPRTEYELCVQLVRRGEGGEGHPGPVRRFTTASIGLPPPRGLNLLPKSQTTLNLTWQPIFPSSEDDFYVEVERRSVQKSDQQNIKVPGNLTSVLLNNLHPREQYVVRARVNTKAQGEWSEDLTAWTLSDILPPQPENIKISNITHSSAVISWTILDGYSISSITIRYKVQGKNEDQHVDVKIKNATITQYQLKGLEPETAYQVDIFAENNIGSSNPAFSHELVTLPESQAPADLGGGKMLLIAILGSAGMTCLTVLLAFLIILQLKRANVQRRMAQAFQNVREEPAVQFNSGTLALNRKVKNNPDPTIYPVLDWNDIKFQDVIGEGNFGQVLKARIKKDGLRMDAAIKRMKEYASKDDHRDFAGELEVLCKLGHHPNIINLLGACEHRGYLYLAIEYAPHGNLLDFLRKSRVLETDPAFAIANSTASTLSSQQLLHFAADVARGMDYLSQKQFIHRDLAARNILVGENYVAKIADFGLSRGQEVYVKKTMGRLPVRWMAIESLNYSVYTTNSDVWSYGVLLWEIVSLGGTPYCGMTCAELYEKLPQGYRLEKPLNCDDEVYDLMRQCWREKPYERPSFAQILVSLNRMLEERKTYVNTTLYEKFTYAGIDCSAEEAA
T4 sequence (P06213 980-1382 limits assumed): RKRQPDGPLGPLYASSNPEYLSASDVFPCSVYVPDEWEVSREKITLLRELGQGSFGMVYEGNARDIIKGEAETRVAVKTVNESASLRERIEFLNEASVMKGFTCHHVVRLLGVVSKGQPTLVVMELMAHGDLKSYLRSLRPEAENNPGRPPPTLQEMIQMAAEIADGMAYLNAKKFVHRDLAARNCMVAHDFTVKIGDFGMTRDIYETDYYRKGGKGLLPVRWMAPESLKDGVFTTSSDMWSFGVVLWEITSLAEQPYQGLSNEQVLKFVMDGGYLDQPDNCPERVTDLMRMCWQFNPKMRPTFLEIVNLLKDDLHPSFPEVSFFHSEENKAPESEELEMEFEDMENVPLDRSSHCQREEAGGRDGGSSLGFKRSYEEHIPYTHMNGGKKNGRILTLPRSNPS

SMILES | IC50 (ARK5; [1]) [µM] | IC50 (EPHB4; [2]) [µM] | IC50 (FAK; [3]) [µM] | IC50 (INS-R; [4]) [µM] | IC50 (SRC; [5]) [µM] | IC50 (TIE2; [6]) [µM] | IC50 (VEGF-R2; [7]) [µM] | IC50 (PDGFR-beta) [µM] | IC50 (ARK5) [µM] | IC50 (EPHB4) [µM] | IC50 (FAK) [µM] | IC50 (INS-R) [µM] | IC50 (SRC) [µM] | IC50 (TIE2) [µM] | IC50 (VEGF-R2) [µM]
O=c1ccc(=O)c2c1c1c(=O)c3ccccc3c1n2Cc1ccccc1 [Compound 6c, 5-Benzyl 5,6,9,10-tetrahydroindeno[1,2-b]indole-6,9,10-trione] | 1.3 | 9.3 | > 10 | 6.5 | 0.8 | 4.7 | 3.3 | > 10 |  |  |  |  |  |  | 
CC(C)n1c2c(c3c1-c1ccccc1C3=O)C(=O)CCC2 [Compound 4b, 5-Isopropyl-5,6,7,8-tetrahydroindeno[1,2-b]indole-9,10-dione] |  |  |  |  |  |  |  |  | > 10 | > 10 | > 10 | > 10 | > 10 | > 10 | > 10
CC(C)n1c2c(=O)ccc(=O)c2c2c(=O)c3ccccc3c21 [Compound 6b, 5-Isopropyl-5H-indeno[1,2-b]indole-6,9,10-trione] | 0.17 | > 10 | > 10 | 1.6 | 1.6 | 3.2 | 1.9 | > 10 |  |  |  |  |  |  | 
